This note sets out measurements from US12275731B2, “Azaindole inhibitors of wild-type and mutant forms of LRRK2” (DANA-FARBER CANCER INSTITUTE, INC., priority 2018, dated 2025).

What all share (assay): KinomeScan profiling
Type in all cases: binding

For one experiment, the target named is PKN2 (Homo sapiens, UniProt Q16513). As to conditions: PKN2, 1 μM; read-out: % control. The gist of the method: (§1)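 1 μM cpd in DMSO; 468-kinase panel; readout RLU. % ctrl = (cpd − pos ctrl)/(neg ctrl − pos ctrl) ×100. Pos ctrl = 0%, DMSO = 100%. Hit cut-off <35%.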
For a further experiment, the target named is MAPKAPK2 (Homo sapiens, UniProt P49137). Particulars: MAPKAPK2, 1 μM; read-out: % control. The gist of the method: as §1
Sequence of MAPKAPK2 (P49137 whole entry): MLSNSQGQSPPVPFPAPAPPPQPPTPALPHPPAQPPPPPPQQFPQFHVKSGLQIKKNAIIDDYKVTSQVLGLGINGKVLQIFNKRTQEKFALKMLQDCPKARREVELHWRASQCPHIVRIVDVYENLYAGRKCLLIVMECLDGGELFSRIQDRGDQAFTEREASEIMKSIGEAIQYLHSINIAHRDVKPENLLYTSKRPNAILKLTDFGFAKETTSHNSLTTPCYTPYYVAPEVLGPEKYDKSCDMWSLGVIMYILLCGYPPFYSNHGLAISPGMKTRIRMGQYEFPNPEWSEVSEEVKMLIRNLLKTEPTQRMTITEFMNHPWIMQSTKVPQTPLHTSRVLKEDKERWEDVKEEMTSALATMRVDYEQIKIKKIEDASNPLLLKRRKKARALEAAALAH
The next experiment addresses EGFR(S752-I759del) (Homo sapiens, UniProt P00533, DEL752-759). As to conditions: read-out: % control. An outline of the steps: as §1
The target in another experiment is T1, AAK1 (Homo sapiens, UniProt Q2M2I8).
T1 construct: purchased KinomeScan®
Particulars: AAK1, 1 μM; read-out: % control. An outline of the steps:
as §1

In the next experiment the target is ERBB2 (Homo sapiens, UniProt P04626). As to conditions: ERBB2, 1 μM; read-out: % control. An outline of the steps:
as §1

The target of another experiment is CAMK2B (Homo sapiens, UniProt Q13554). Particulars: read-out: % control. An outline of the steps: as §1
Sequence of CAMK2B (Q13554 whole entry): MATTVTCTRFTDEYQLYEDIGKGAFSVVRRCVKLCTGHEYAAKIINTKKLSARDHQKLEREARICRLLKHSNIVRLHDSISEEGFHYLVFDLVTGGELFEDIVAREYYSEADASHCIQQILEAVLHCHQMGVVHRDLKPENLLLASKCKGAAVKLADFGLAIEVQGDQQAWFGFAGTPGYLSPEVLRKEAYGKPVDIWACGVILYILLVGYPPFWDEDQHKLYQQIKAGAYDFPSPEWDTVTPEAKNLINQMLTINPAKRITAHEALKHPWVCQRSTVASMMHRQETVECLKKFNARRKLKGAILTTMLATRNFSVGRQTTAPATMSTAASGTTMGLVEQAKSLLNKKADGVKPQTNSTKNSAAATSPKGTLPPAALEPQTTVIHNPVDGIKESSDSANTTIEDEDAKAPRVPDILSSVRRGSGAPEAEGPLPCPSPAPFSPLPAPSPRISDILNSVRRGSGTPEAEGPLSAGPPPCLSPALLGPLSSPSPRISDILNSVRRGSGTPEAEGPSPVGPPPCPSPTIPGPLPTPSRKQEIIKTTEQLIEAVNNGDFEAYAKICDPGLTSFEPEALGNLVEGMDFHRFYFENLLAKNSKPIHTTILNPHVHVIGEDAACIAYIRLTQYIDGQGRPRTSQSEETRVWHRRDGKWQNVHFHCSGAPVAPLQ
The target in another experiment is RIOK2 (Homo sapiens, UniProt Q9BVS4). Particulars: RIOK2, 1 μM; read-out: % control. An outline of the steps: as §1
Sequence of RIOK2 (Q9BVS4 whole entry): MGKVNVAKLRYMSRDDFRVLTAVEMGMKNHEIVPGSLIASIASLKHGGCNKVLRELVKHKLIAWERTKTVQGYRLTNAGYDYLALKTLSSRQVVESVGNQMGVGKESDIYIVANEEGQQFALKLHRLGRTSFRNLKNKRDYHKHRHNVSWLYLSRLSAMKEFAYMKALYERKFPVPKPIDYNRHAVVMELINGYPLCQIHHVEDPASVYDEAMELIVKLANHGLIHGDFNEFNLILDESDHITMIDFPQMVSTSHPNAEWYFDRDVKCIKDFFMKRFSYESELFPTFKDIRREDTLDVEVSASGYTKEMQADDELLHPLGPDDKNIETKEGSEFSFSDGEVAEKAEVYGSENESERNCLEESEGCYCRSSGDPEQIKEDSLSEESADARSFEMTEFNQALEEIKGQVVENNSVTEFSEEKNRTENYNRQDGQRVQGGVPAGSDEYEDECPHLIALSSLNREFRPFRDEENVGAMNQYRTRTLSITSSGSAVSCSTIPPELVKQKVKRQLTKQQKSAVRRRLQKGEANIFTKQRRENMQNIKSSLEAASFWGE
The target in another experiment is T2, DCAMKL1 (Homo sapiens, UniProt O15075).
T2 sequence (O15075 1-740): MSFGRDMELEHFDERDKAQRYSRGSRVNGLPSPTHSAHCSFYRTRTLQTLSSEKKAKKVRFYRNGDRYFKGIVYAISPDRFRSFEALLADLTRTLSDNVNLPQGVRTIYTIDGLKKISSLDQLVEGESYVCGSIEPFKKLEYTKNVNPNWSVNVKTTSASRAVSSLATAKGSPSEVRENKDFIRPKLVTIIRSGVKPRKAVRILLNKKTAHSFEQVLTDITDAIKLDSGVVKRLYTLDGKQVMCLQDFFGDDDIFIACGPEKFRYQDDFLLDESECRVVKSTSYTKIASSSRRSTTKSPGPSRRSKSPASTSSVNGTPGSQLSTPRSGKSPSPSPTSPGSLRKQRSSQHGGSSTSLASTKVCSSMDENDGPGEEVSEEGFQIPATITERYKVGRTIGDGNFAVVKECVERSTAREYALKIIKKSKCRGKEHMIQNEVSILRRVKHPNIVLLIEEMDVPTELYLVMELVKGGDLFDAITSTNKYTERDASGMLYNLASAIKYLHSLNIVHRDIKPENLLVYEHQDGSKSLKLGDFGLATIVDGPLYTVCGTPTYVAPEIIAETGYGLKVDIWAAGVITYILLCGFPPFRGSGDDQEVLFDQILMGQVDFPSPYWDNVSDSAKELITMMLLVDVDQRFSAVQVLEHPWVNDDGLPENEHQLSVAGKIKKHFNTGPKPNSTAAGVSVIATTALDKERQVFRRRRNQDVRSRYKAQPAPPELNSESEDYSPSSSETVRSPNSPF
As to conditions: DCAMKL1, 1 μM; read-out: % control. An outline of the steps:
as §1

A further experiment has as its target T3, GRK7 (Homo sapiens, UniProt Q8WTQ7).
T3 sequence (Q8WTQ7 1-553): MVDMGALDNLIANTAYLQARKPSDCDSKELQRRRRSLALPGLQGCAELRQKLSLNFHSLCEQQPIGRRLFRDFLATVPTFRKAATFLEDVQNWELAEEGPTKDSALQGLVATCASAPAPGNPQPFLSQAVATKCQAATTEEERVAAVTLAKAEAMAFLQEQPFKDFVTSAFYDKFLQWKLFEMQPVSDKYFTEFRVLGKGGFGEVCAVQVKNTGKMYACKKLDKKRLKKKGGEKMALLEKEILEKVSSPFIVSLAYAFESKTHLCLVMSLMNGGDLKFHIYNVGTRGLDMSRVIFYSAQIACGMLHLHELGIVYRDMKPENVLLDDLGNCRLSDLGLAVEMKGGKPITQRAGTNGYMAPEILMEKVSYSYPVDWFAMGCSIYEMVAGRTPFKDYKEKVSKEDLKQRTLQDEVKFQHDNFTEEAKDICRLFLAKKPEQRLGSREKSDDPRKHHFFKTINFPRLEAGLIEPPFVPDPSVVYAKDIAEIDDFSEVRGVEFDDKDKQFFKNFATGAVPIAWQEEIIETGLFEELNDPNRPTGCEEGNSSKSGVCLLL
Particulars: GRK7, 1 μM; read-out: % control. An outline of the steps: as §1

For another experiment, the target named is NDR1 (Homo sapiens, UniProt Q15208). As to conditions: NDR1, 1 μM; read-out: % control. An outline of the steps: as §1
Sequence of NDR1 (Q15208 whole entry): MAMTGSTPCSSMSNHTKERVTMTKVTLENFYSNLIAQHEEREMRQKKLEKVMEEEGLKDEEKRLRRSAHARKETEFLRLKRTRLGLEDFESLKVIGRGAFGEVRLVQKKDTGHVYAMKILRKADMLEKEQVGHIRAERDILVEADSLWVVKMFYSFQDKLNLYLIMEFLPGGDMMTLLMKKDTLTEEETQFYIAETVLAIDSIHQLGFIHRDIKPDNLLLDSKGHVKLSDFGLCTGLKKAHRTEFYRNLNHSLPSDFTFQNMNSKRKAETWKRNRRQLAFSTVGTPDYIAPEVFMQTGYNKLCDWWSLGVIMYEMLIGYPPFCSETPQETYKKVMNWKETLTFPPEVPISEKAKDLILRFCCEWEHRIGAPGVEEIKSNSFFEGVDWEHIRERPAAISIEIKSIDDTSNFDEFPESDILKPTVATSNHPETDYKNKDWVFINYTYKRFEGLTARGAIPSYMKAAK
In the next experiment the target is T4, ACVR2B (Homo sapiens, UniProt Q13705).
T4 construct: purchased KinomeScan®
As to conditions: read-out: % control. An outline of the steps: as §1

Another experiment has as its target PDGFRB (Homo sapiens, UniProt P09619). Particulars: read-out: % control. The gist of the method: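 The panel spans 468 kinases, and each inventive compound was applied at 1 μM from DMSO. Lower % control means stronger binding; the activity cut-off is set at less than 35%.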
The target in the next experiment is CAMKK1 (Homo sapiens, UniProt Q8N5S9). As to conditions: CAMKK1, 1 μM; read-out: % control. The gist of the method:
as §1

The target of another experiment is EPHA4 (Homo sapiens, UniProt P54764). Particulars: EPHA4, 1 μM; read-out: % control. An outline of the steps:
as §1

Sequence of CAMKK1 (Q8N5S9 whole entry): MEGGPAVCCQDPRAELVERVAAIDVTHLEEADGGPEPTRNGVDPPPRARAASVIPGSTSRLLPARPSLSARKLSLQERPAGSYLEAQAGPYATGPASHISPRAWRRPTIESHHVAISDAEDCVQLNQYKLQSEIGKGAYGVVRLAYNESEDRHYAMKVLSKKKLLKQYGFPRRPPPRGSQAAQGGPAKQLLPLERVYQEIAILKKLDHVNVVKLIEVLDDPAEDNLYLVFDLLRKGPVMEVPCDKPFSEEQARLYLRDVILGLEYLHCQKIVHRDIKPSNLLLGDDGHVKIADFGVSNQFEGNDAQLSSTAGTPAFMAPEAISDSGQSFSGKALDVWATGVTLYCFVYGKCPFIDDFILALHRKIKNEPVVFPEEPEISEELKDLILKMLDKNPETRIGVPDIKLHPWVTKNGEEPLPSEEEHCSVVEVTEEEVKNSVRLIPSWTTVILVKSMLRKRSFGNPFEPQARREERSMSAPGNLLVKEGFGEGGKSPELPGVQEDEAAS
Sequence of PDGFRB (P09619 33-1106): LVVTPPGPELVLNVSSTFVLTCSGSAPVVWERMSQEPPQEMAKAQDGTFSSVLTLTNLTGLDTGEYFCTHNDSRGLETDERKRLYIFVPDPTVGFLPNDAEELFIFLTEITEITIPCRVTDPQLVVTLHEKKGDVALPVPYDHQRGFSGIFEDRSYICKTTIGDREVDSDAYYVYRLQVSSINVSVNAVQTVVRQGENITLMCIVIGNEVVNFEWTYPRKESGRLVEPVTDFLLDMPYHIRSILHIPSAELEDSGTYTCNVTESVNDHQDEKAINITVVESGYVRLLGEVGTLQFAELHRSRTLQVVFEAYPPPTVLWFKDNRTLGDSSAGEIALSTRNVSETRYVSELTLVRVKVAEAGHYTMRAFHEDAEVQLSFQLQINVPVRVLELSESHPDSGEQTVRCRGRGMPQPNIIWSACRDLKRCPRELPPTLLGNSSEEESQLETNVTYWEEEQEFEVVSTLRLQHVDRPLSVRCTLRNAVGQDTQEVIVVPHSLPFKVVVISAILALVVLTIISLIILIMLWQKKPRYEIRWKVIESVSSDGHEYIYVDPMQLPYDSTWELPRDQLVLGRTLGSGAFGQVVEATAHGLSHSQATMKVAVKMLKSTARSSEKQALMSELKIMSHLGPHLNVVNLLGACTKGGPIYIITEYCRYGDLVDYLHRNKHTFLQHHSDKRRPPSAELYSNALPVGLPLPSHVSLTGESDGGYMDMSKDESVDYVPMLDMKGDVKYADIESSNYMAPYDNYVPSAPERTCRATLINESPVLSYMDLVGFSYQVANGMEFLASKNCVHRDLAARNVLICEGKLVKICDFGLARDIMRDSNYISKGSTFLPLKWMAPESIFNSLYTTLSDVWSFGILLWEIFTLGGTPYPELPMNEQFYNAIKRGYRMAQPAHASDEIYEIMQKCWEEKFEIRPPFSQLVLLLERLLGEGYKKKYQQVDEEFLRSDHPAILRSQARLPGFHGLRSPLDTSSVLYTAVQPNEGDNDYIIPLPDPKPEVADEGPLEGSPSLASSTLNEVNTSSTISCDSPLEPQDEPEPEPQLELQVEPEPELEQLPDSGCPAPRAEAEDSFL
Sequence of EGFR(S752-I759del) (P00533 with tags, fused parts or gaps DEL752-759): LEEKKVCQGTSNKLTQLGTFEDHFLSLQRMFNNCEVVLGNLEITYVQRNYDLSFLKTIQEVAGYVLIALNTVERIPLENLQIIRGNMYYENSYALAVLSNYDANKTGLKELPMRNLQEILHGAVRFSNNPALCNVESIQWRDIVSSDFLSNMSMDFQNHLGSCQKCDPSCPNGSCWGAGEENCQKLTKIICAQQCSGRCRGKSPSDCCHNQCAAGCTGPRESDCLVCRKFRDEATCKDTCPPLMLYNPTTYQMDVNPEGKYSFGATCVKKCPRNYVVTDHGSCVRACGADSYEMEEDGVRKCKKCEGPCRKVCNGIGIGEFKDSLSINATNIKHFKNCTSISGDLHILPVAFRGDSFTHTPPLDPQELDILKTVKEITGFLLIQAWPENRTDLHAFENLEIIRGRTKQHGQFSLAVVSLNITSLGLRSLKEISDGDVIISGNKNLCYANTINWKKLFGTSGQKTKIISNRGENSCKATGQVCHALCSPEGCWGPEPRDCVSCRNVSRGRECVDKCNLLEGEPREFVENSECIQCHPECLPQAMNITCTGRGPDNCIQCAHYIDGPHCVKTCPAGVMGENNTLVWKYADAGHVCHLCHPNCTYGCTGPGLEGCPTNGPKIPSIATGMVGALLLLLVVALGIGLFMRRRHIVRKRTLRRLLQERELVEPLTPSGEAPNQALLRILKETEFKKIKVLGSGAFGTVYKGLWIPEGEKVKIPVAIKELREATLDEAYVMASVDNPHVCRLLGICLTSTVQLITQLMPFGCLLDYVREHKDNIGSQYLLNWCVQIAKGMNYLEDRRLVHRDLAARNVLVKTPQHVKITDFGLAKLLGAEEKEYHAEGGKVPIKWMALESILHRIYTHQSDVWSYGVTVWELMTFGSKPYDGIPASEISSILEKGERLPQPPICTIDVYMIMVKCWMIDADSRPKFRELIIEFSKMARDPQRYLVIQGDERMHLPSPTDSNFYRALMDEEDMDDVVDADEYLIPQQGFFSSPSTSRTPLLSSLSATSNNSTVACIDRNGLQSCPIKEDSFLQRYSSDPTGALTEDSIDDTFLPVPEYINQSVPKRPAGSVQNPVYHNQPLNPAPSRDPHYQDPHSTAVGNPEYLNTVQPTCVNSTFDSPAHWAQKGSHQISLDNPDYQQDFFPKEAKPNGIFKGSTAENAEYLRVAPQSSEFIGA

As to `CNc1c(-c2ccc(C(=O)N3CCC(N4CCOCC4)CC3)cc2)cnc2[nH]cc(Cl)c12` [Compound 96, (4-(3-chloro-4-(methylamino)-1H-pyrrolo[2,3-b]pyridin-5-yl)phenyl)(4-morpholinopiperidin-1-yl)methanone], the remaining binding at 1 µM on PKN2 is 87%; at MAPKAPK2, 100%; on EGFR(S752-I759del), 98%; on AAK1 it was 23%; at ERBB2, 80%; on CAMK2B, 100%. Further, the remaining binding at 1 µM at RIOK2 is 26%; on DCAMKL1, 77%; at GRK7, 100%; at NDR1 it was 69%; at ACVR2B it was 91%; at PDGFRB, 21%. Besides, the remaining binding at 1 µM at CAMKK1 came to 78%; on EPHA4, 100%.
`O=C(c1ccc(-c2cnc3[nH]cc(Cl)c3c2NC2CCCC2)cc1)N1CCC(N2CCOCC2)CC1` [Compound 101, (4-(3-chloro-4-(cyclopentylamino)-1H-pyrrolo[2,3-b]pyridin-5-yl)phenyl)(4-morpholinopiperidin-1-yl)methanone]: the remaining binding at 1 µM on PKN2 was 75%; on MAPKAPK2 it was 51%; on EGFR(S752-I759del), 100%; on AAK1 it was 67%; at ERBB2, 92%; on CAMK2B it was 99%. Further, the remaining binding at 1 µM on RIOK2 was found to be 28%; at DCAMKL1 it was 90%; at GRK7, 94%; at NDR1 it was 84%; on ACVR2B it was 100%; on PDGFRB it was 83%. For the same compound, the remaining binding at 1 µM on CAMKK1 was 87%; at EPHA4 it was 88%.
With `CNc1c(-c2cnn([C@H]3CCN(C(C)=O)C[C@@H]3F)c2)cnc2[nH]cc(Cl)c12` [Compound 77, 1-((3S,4S)-4-(4-(3-chloro-4-(methylamino)-1H-pyrrolo[2,3-b]pyridin-5-yl)-1H-pyrazol-1-yl)-3-fluoropiperidin-1-yl)ethan-1-one], the remaining binding at 1 µM was 51% at PKN2; 100% at MAPKAPK2; 100% at EGFR(S752-I759del); 36% on AAK1; 63% on ERBB2; 100% on CAMK2B. For the same compound, the remaining binding at 1 µM at RIOK2 worked out at 73%; on DCAMKL1, 79%; at GRK7, 100%; on NDR1, 74%; at ACVR2B, 77%; on PDGFRB, 20%. The remaining binding at 1 µM turned out to be 74% on CAMKK1 and 96% on EPHA4.
